{"source": "patent US20050112182A1", "about": "“Medical adhesive and medical covering agent using ultraviolet ray curable chitosan derivative” (priority 2003, published 2005)", "system": "subcutaneous tissue", "details": "dog, in vivo", "method": "The adaptability to an organism was tested in respect of the medical adhesive according to one embodiment of the present invention.\nThree incision each having a length of 2 cm in the direction of the body axis were formed on the back of a dog anesthetized with acepromazine (0.5 mg/Kg) and pentobarbital (25 mg/Kg), and each of the subcutaneous regions of the incision portions was enlarged with scissors so as to have a diameter of about 2 cm.\nThree kinds of treatments (A), (B) and (C) given below were applied to each of the incision portions:\n(A) Dimethyl sulfoxide used as a reference substance was injected in an amount of 0.5 ml, and irradiation with an ultraviolet ray was not performed.\n(B) The adhesive was injected in an amount of 0.5 ml, and irradiation with an ultraviolet ray was not performed.\n(C) The adhesive was injected in an amount of 0.5 ml, and irradiation with an ultraviolet ray was performed.\nOne week later, each portion was collected under a general anesthesia so as to carry out the histological analysis.", "data": [{"molecule": "C[S+](C)[O-]", "note": "[(A) reference, Dimethyl sulfoxide]", "values": [{"measurement": "Adaptability to organism (recognition as foreign matter)", "result": "recognized as a foreign matter within the organism"}, {"measurement": "Clinical inflammation reaction", "result": "not recognized"}, {"measurement": "Inflammation reaction, histological", "result": "prominent histologically"}, {"measurement": "Clinical inflammation reaction (pain), Second day", "setting": "sc", "result": "±"}, {"measurement": "Clinical inflammation reaction (pain), Third day", "setting": "sc", "result": "−"}]}]}
